Measured values reported in patent US5919756A, “Amides” (Eli Lilly and Company, priority 1997, dated 1999).
Values after ≈ are worked out from the molar mass of the structure shown.

What was measured:
Format in all cases: cell-based
[1] = test system: Enterococcus, Resistant (4-6 isolates); experiment: Enterococcus screen, broth micro-dilution MIC, resistant isolates; set-up: unit not given here; settings: mean of 4-6 isolates
Description: (§1) The antibacterial efficacy of the present compounds is illustrated in TABLE 2. The minimal inhibitory concentrations (MICs) were determined using a standard broth micro-dilution assay.

[2] = test system: Staphylococcus aureus 489; experiment: Broth micro-dilution MIC, SA 489; settings: unit assumed
Description: as §1

[3] = test system: Staphylococcus aureus 447; experiment: Broth micro-dilution MIC, SA 447; settings: unit assumed
Description: as §1

[4] = test system: Streptococcus pyogenes 203; experiment: Broth micro-dilution MIC, S PY 203; settings: unit assumed
Description: as §1

[5] = test system: Enterococcus, Sensitive (4-6 isolates); experiment: Enterococcus screen, broth micro-dilution MIC, sensitive isolates; set-up: unit not given here; settings: mean of 4-6 isolates
Description: as §1

[6] = test system: Staphylococcus haemolyticus 415; experiment: Broth micro-dilution MIC, SH 415; settings: unit assumed
Description: as §1

[7] = test system: Streptococcus pneumoniae P1; experiment: Broth micro-dilution MIC, S PN P1; settings: unit assumed
Description: as §1

[8] = test system: Staphylococcus aureus 446; experiment: Broth micro-dilution MIC, SA 446; settings: unit assumed
Description: as §1

[9] = test system: Staphylococcus epidermis 270; experiment: Broth micro-dilution MIC, SE 270; settings: unit assumed
Description: as §1

[10] = test system: Staphylococcus haemolyticus 105; experiment: Broth micro-dilution MIC, SH 105; settings: unit assumed
Description: as §1

| Compound | Minimum Inhibitory Concentrations (MICs), Mean Values of 4-6 Isolates, Resistant [1] | MIC, SA 489 [2] [µg/mL] | MIC, SA 447 [3] [µg/mL] | MIC, S PY 203 [4] [µg/mL] | Minimum Inhibitory Concentrations (MICs), Mean Values of 4-6 Isolates, Sensitive [5] | MIC, SH415 [6] [µg/mL] | MIC, S PN P1 [7] [µg/mL] | MIC, SA 446 [8] [µg/mL] | MIC, SE270 [9] [µg/mL] | MIC, SH105 [10] [µg/mL] |
| --- | --- | --- | --- | --- | --- | --- | --- | --- | --- | --- |
| CNC(CC(C)C)C(=O)NC1C(=O)NC(CC(N)=O)C(=O)NC2C(=O)NC3C(=O)NC(C(=O)NC(C(=O)NCCCOC)c4cc(O)cc(O)c4-c4cc3ccc4O)C(OC3CC(C)(N)C(O)C(C)O3)c3ccc(c(Cl)c3)Oc3cc2cc(c3OC2OC(CO)C(O)C(O)C2OC2CC(C)(NCc3ccc(-c4ccccc4)cc3)C(O)C(C)O2)Oc2ccc(cc2Cl)C1O (centres unmarked) [Example 13, N^4-(4-phenylbenzyl)A82846B, (3-methoxypropyl)amide] | 1.4 | 1 (≈ 0.547 µM) | 1 (≈ 0.547 µM) | ≤ 0.06 | 0.072 | 0.5 (≈ 0.273 µM) | ≤ 0.06 | 1 (≈ 0.547 µM) | 1 (≈ 0.547 µM) | 2 (≈ 1.09 µM) |
| N^4 -(4-phenoxybenzyl)A82846B, benzylamide, trifiuoroacetate salt [Example 9] | 2 | 1 | 1 | ≤ 0.06 | 0.082 | 1 | ≤ 0.06 | 1 | 0.5 | 1 |
| CNC(CC(C)C)C(=O)NC1C(=O)NC(CC(N)=O)C(=O)NC2C(=O)NC3C(=O)NC(C(=O)NC(C(=O)NCc4ccc(OC)cc4)c4cc(O)cc(O)c4-c4cc3ccc4O)C(OC3CC(C)(N)C(O)C(C)O3)c3ccc(c(Cl)c3)Oc3cc2cc(c3OC2OC(CO)C(O)C(O)C2OC2CC(C)(NCc3ccc(-c4ccccc4)cc3)C(O)C(C)O2)Oc2ccc(cc2Cl)C1O.O=C(O)C(F)(F)F (centres unmarked) [Example 12, N^4-(4-phenylbenzyl)A82846B, (4-methoxybenzyl) amide, trifluoroacetate salt] | 1.7 | 0.5 | 1 | ≤ 0.06 | 0.13 | 4 | ≤ 0.06 | 2 | 2 | 1 |
| N^4 -(4-phenylbenzyl)A82846B, butylamide, trifluoroacetate salt [Example 3] | 2.4 | 4 | 2 | ≤ 0.06 | 0.11 | 2 | ≤ 0.06 | 2 | 1 | 0.5 |
| CNC(CC(C)C)C(=O)NC1C(=O)NC(CC(N)=O)C(=O)NC2C(=O)NC3C(=O)NC(C(=O)NC(C(=O)NCCc4ccccc4)c4cc(O)cc(O)c4-c4cc3ccc4O)C(OC3CC(C)(N)C(O)C(C)O3)c3ccc(c(Cl)c3)Oc3cc2cc(c3OC2OC(CO)C(O)C(O)C2OC2CC(C)(NCc3ccc(-c4ccc(C)cc4)cc3)C(O)C(C)O2)Oc2ccc(cc2Cl)C1O (centres unmarked) [Example 19, N^4-(4-(4-methylphenyl)benzyl)-A82846B, phenethylamide] | 1 | 2 (≈ 1.07 µM) | 4 (≈ 2.13 µM) | ≤ 0.06 | 0.22 | 4 (≈ 2.13 µM) | ≤ 0.06 | 2 (≈ 1.07 µM) | 2 (≈ 1.07 µM) | 2 (≈ 1.07 µM) |
| CNC(CC(C)C)C(=O)NC1C(=O)NC(CC(N)=O)C(=O)NC2C(=O)NC3C(=O)NC(C(=O)NC(C(=O)NCc4ccccc4)c4cc(O)cc(O)c4-c4cc3ccc4O)C(OC3CC(C)(N)C(O)C(C)O3)c3ccc(c(Cl)c3)Oc3cc2cc(c3OC2OC(CO)C(O)C(O)C2OC2CC(C)(N)C(O)C(C)O2)Oc2ccc(cc2Cl)C1O.O=C(O)C(F)(F)F (centres unmarked) [Example 24, A82846B, benzylamide, trifluoroacetate salt] | > 128 | ≤ 0.06 | ≤ 0.06 | ≤ 0.06 | 0.38 | ≤ 0.06 | ≤ 0.06 | ≤ 0.06 | ≤ 0.06 | ≤ 0.06 |
| CNC(CC(C)C)C(=O)NC1C(=O)NC(CC(N)=O)C(=O)NC2C(=O)NC3C(=O)NC(C(=O)NC(C(=O)NCCc4ccccc4)c4cc(O)cc(O)c4-c4cc3ccc4O)C(OC3CC(C)(N)C(O)C(C)O3)c3ccc(c(Cl)c3)Oc3cc2cc(c3OC2OC(CO)C(O)C(O)C2OC2CC(C)(NCc3ccc(-c4ccccc4)cc3)C(O)C(C)O2)Oc2ccc(cc2Cl)C1O.Cl (centres unmarked) [Example 18, N^4-(4-phenylbenzyl)A82846B, phenethylamide, HCl salt] | 0.84 | 2 | 1 | ≤ 0.06 | 0.19 | 2 | ≤ 0.06 | 1 | 1 | 2 |
| N^4 -(4-phenylbenzy1)A82846B, DL-(2-furanon-3-yl)amide [Example 7] | 1.7 | 1 | 2 | ≤ 0.06 | 0.048 | 1 | ≤ 0.06 | 2 | 0.5 | 0.5 |
| N^4 -(4-phenylbenzyl)A82846B, methylamide, trifluoroacetate salt [Example 2] | 1.19 | 1 | 0.5 | ≤ 0.06 | 0.041 | 0.25 | ≤ 0.06 | 1 | ≤ 0.06 | 0.125 |
| CNC(CC(C)C)C(=O)NC1C(=O)NC(CC(N)=O)C(=O)NC2C(=O)NC3C(=O)NC(C(=O)NC(C(=O)NCc4ccccc4)c4cc(O)cc(O)c4-c4cc3ccc4O)C(OC3CC(C)(N)C(O)C(C)O3)c3ccc(c(Cl)c3)Oc3cc2cc(c3OC2OC(CO)C(O)C(O)C2OC2CC(C)(NCc3ccc(-c4ccccc4)cc3)C(O)C(C)O2)Oc2ccc(cc2Cl)C1O (centres unmarked) [Example 10, N^4-(4-phenylbenzyl)A82846B, benzylamide] | 0.84 | 4 (≈ 2.16 µM) | 2 (≈ 1.08 µM) | ≤ 0.06 | 0.14 | 4 (≈ 2.16 µM) | ≤ 0.06 | 1 (≈ 0.541 µM) | 0.5 (≈ 0.271 µM) | 0.5 (≈ 0.271 µM) |
| N^4 -(4-PHENOXYBENZYL)A82846B, 3-(DIMETHYLAMINO)PROPYLAMIDE, TRIFLUOROACETATE SALT [Example 1] | 1.4 | 2 | 1 | ≤ 0.06 | 0.13 | 2 | ≤ 0.125 | 4 | 0.25 | 2 |
